According to patent publication US12004511B2, “Method of controlling weeds in warm season turfgrass” (SYNGENTA PARTICIPATIONS AG, priority 2017, dated 2024):

Assays:
[1] = system: tropical signalgrass (Urochloa subquadripara); experiment: Tropical signalgrass control in Bermudagrass plots; assay type: in vivo; settings: 28 days after application
Text: Applications of pinoxaden, and pinoxaden plus cloquintocet were applied to various Bermudagrass plots with tropical […] present between August 11 and August 13. The plots were again evaluated 28 days following the application. The following percent weed controls were observed.

[2] = system: dallisgrass (Paspalum dilatatum); experiment: Dallisgrass control in bermudagrass; assay type: in vivo; settings: two applications, 28 days after the first application
Text: Applications initiated on Oct. 1, 2014.
initiated in AL for dallisgrass control in bermudagrass on Oct. 28, 2013. Two applications were applied. Percent dallisgrass control was taken 28 days after the first application.

In the case of CCc1cc(C)cc(CC)c1-c1c(OC(=O)C(C)(C)C)n2n(c1=O)CCOCC2 [Pinoxaden, 8-(2,6-Diethyl-4-methylphenyl)-7-oxo-1,2,4,5-tetrahydro-7H-pyrazolo[1,2-d][1,4,5]oxadiazepin-9-yl-2,2-dimethylpropanoat], the “% Control (28 Days AIA)” value ([1]; 70 g active/ha) is reported as 79.5%, the “% Control (28 Days AIA)” value ([1]; 140 g active/ha) is reported as 89.7% and the “% Control (28 Days AIA)” value ([2]; 45 g active/ha) is reported as 82%. The “% Control (28 Days AIA)” value ([2]; 90 g active/ha) was 85%.
